Laboratory results as given in the NIST ThermoML archive (doi:10.1021/je800234h).

Assay: mn = molality of the nth substance listed, in mol/kg
Details: Liquid, Vibrating tube method

[Ca+2].[Cl-].[Cl-] [calcium chloride] + CCO
Details	mass density [kg/m3]
373.15 K, 30290 kPa, m1 = 0.09327	758.06
373.15 K, 30410 kPa, m1 = 0.1743	764.51
373.15 K, 35070 kPa, m1 = 1.266	842.89
373.15 K, 35370 kPa, m1 = 0.4379	787.22
373.15 K, 35420 kPa, m1 = 0.09327	762.76
373.15 K, 35480 kPa, m1 = 1.55	862.67
373.15 K, 35840 kPa, m1 = 0.6899	804.85
373.15 K, 35870 kPa, m1 = 0.1743	768.88
373.15 K, 35870 kPa, m1 = 0.9896	825.32
373.15 K, 39260 kPa, m1 = 0.4379	790.31
373.15 K, 39740 kPa, m1 = 0.1743	771.57
373.15 K, 39910 kPa, m1 = 0.09327	766.53
373.15 K, 39940 kPa, m1 = 0.6899	807.94
373.15 K, 39960 kPa, m1 = 0.9896	828.19
373.15 K, 39970 kPa, m1 = 1.266	846.74
373.15 K, 39970 kPa, m1 = 1.55	865.39
398.15 K, 620 kPa, m1 = 1.266	780.71
398.15 K, 680 kPa, m1 = 0.09327	692.59
398.15 K, 740 kPa, m1 = 1.55	801.26
398.15 K, 950 kPa, m1 = 0.4379	719.54
398.15 K, 970 kPa, m1 = 0.6899	737.62
398.15 K, 1030 kPa, m1 = 0.1743	700.75
398.15 K, 1060 kPa, m1 = 0.9896	760.33
398.15 K, 5070 kPa, m1 = 0.1743	707.51
398.15 K, 5070 kPa, m1 = 0.9896	766.76
398.15 K, 5100 kPa, m1 = 0.09327	700.41
398.15 K, 5160 kPa, m1 = 0.6899	744.53
398.15 K, 5180 kPa, m1 = 1.266	786.93
398.15 K, 5380 kPa, m1 = 0.4379	726.88
398.15 K, 5470 kPa, m1 = 1.55	808.33
398.15 K, 10020 kPa, m1 = 0.6899	752.01
398.15 K, 10060 kPa, m1 = 1.266	793.27
398.15 K, 10080 kPa, m1 = 0.09327	708.63
398.15 K, 10290 kPa, m1 = 0.4379	734.49
398.15 K, 10460 kPa, m1 = 1.55	815.02
398.15 K, 10540 kPa, m1 = 0.1743	716.08
398.15 K, 10540 kPa, m1 = 0.9896	774.89
398.15 K, 15240 kPa, m1 = 0.6899	759.43
398.15 K, 15290 kPa, m1 = 0.1743	722.99
398.15 K, 15290 kPa, m1 = 0.9896	781.35
398.15 K, 15410 kPa, m1 = 0.09327	716.75
398.15 K, 15610 kPa, m1 = 0.4379	742.12
398.15 K, 15620 kPa, m1 = 1.266	800.09
398.15 K, 15620 kPa, m1 = 1.55	821.29
398.15 K, 20030 kPa, m1 = 0.09327	723.21
398.15 K, 20080 kPa, m1 = 1.266	805.26
398.15 K, 20140 kPa, m1 = 0.1743	729.54
398.15 K, 20140 kPa, m1 = 1.55	826.33
398.15 K, 20410 kPa, m1 = 0.9896	787.68
398.15 K, 20480 kPa, m1 = 0.4379	748.53
398.15 K, 20620 kPa, m1 = 0.6899	766.4
398.15 K, 24980 kPa, m1 = 0.1743	735.56
398.15 K, 25060 kPa, m1 = 0.09327	729.63
398.15 K, 25080 kPa, m1 = 0.9896	792.89
398.15 K, 25340 kPa, m1 = 0.4379	754.4
398.15 K, 25340 kPa, m1 = 1.55	831.69
398.15 K, 25640 kPa, m1 = 1.266	811.31
398.15 K, 25890 kPa, m1 = 0.6899	772.57
398.15 K, 30030 kPa, m1 = 1.266	815.79
398.15 K, 30060 kPa, m1 = 0.4379	759.57
398.15 K, 30140 kPa, m1 = 0.6899	777.06
398.15 K, 30170 kPa, m1 = 0.09327	735.52
398.15 K, 30470 kPa, m1 = 1.55	836.6
398.15 K, 30740 kPa, m1 = 0.9896	798.47
398.15 K, 30780 kPa, m1 = 0.1743	742.1
398.15 K, 35180 kPa, m1 = 0.09327	740.65
398.15 K, 35180 kPa, m1 = 0.4379	764.61
398.15 K, 35460 kPa, m1 = 0.1743	746.84
398.15 K, 35740 kPa, m1 = 1.266	821.22
398.15 K, 35830 kPa, m1 = 1.55	841.39
398.15 K, 35940 kPa, m1 = 0.6899	782.51
398.15 K, 35970 kPa, m1 = 0.9896	802.93
398.15 K, 39290 kPa, m1 = 0.6899	785.29
398.15 K, 39380 kPa, m1 = 0.4379	768.3
398.15 K, 39760 kPa, m1 = 1.55	844.7
398.15 K, 39790 kPa, m1 = 0.1743	750.79
398.15 K, 39860 kPa, m1 = 0.9896	805.8
398.15 K, 39920 kPa, m1 = 0.09327	744.93
398.15 K, 39920 kPa, m1 = 1.266	824.91
